6 compounds from patent US11337427B2, “Antimicrobial agents and their use in therapy” (priority 2013, dated 2022) can be followed below.

For one assay, the system named is E. coli BL21 (ripl). Nature of the assay: Overexpression of APIM peptides in E. coli (growth, OD). In kind it is cell-based. The following applies: induced with 1 mM IPTG; no cell-penetrating peptide. The source says: In order to verify further that the anti-microbial effect of the APIM peptides arises from the APIM sequence, peptides containing only the APIM sequence (i.e. without a cell-penetrating peptide) were over-expressed in E. coli using the expression vector pET28. The APIM peptide was expressed alone or as part of a fusion protein with EYFP. Expression of EYFP alone was used as a control.
The expression vectors containing the respective peptides were transfected into the bacterial strain E. coli BL21 (ripl). Single colonies, 4-6 of each strain, were inoculated in […] LB media (+Km/Clm) in 96 wells plates, and incubated at 37° C. Overnight cultures were diluted 1:100 and grown for 1 h before induction with 1 mM IPTG (initiating peptide expression). OD was measured every hour.

The subject of assay [1] is Saccharomyces cerevisiae wild type BY4743. As to the kind of experiment: Yeast growth study in microplates (OD 600 nm). The following applies: for concentration required to retard growth of the yeast cells: agent alone, wild-type yeast.
Procedure: Growth studies on wild-type (wt) yeast and the Hog1 mutant were performed. […] The OD (600 nm) in each well was read every 20 minutes using an integrated Beckman Coulter Paradigm microplate reader. The growth of the yeast strains in the microplates was monitored for approximately 25 hours.
In assay [2] the test system is Yeast cells (Saccharomyces cerevisiae). As to the kind of experiment: Cellular import of FAM-labelled ATX-101 (laser scanning microscopy). The assay is classed as cell-based. The following applies: FAM-labelled peptide, 1-2 minutes incubation. As to the method: Yeast cells (Saccharomyces cerevisiae) were grown in LB media. A fluorescently labelled APIM peptide (ATX-101-FAM) was added to the media and incubated for 1-2 minutes before an aliquot of cells was removed and analyzed on a Zeiss LSM 510 Meta laser scanning microscope equipped with a Plan-Apochromate 63×/1.4 oil immersion objective.

Assay [3] concerns Staphylococcus aureus NCTC 6571. Nature of the assay: MIC assay. The following applies: starting concentration 150 μg/ml.
The subject of assay [4] is Staphylococcus aureus MRSA 1096. Nature of the assay: MIC assay. The following applies: starting concentration 150 μg/ml.
Assay [5] deals with gram negative bacteria (Pseudomonas aeruginosa ATCC 15692, Acinetobacter baumanni ATCC 19606, Escherichia coli ATCC 25922, Pseudomonas aeruginosa TO-5A). As to the kind of experiment: Robotic MIC assay, gram negative bacteria. The following applies: FIG. 4.
Assay [6] relates to gram positive bacteria (Enterococcus faecium CCUG 37832, Enterococcus faecium CTC 492, Micrococcus luteus ATCC 9341). Nature of the assay: Robotic MIC assay, gram positive bacteria. The following applies: FIG. 5.
For a further assay, the system named is E. coli NCIMB 12210. The following applies: E. coli NCIMB 12210, FIG. 7.

Consider “RFSLK (APIM variant) [APIM variant over-expressed in E. coli]”, for which the “effect of overexpression on bacterial growth” value with E. coli BL21 (ripl) is “particularly effective”.
Turning to `N.N.[Cl][Pt][Cl]` [cisplatin], the “concentration required to retard growth of the yeast cells” value in assay [1] turned out to be 500 µM. The results for the “effect on growth of the yeast cells” value in assay [1] (cisplatin 125 μM alone) and in assay [1] (cisplatin 2000 μM alone) were “not sufficient to retard growth” and “growth is not completely inhibited”, respectively.
As for Ac-MDRWLVKWKKKRKIRRRRRRRRRRR [ATX-101], the cellular import result in assay [2] is “imported into yeast cells”. In addition, the Factor of inhibition stood at 1 in assay [3] and 0.0625 in assay [4]. The “concentration from which growth is inhibited” value in assay [5] and in assay [6] was “about 1 μM” throughout. The “concentration required to retard growth of the yeast cells” value in assay [1] is at least 20 µM. Also, the “reduction of the MIC for novobiocin” value with E. coli NCIMB 12210 worked out at 16 fold.
As for RWLVK (APIM variant), in the assay on E. coli BL21 (ripl), the “effect of overexpression on bacterial growth” value is reported as “inhibits bacterial growth”.
The same measure, in the same setting: to “RWLTK (APIM variant) [APIM variant over-expressed in E. coli]” belongs “particularly effective”; to “RWLVP (APIM variant) [APIM variant over-expressed in E. coli]”, “particularly effective”.
